Measured values reported in ChEMBL document CHEMBL3877297, “Chemical exploration of 4-(4-fluorobenzyl)piperidine fragment for the development of new tyrosinase inhibitors” (Eur J Med Chem, 2017).
Active and inactive are the calls of the source. The rule behind the calls is not given here.

Assays:
Mushroom tyrosinase [1] = target: T1, Mushroom tyrosinase (Agaricus bisporus, UniProt O42713+Q00024+C7FF04+C7FF05); assay: Inhibition of mushroom tyrosinase monophenolase activity using L-tyrosine as substrate measured after 30 mins
Mushroom tyrosinase [2] = target: T1, Mushroom tyrosinase; assay: Inhibition of mushroom tyrosinase diphenolase activity using L-DOPA as substrate measured after 5 mins
[3] = target: T2, Mushroom tyrosinase (Agaricus bisporus) (UniProt O42713+Q00024+C7FF04+C7FF05); assay: Non-competitive inhibition of mushroom tyrosinase diphenolase activity at 4 to 16 uM using varying levels of L-DOPA as substrate by Lineweaver-Burk plot analysis
[4] = target: T2, Mushroom tyrosinase (Agaricus bisporus); assay: Potency index, ratio of 3-(4-benzylpiperidin-1-yl)-1-(1H-indol-3-yl)propan-1-one IC50 to compound IC50 for mushroom tyrosinase diphenolase activity
Mushroom tyrosinase [5] = target: T1, Mushroom tyrosinase; assay: Inhibition of mushroom tyrosinase assessed as reduction in formation of dopachrome using L-DOPA as substrate
[6] = target: T2, Mushroom tyrosinase (Agaricus bisporus); assay: Potency index, ratio of 3-(4-benzylpiperidin-1-yl)-1-(1H-indol-3-yl)propan-1-one IC50 to compound IC50 for mushroom tyrosinase monophenolase activity
[7] = target: T2, Mushroom tyrosinase (Agaricus bisporus); assay: Mixed-type inhibition of mushroom tyrosinase diphenolase activity at 4 to 16 uM using varying levels of L-DOPA as substrate by Lineweaver-Burk plot analysis
[8] = target: T2, Mushroom tyrosinase (Agaricus bisporus); assay: Non-competitive inhibition of mushroom tyrosinase diphenolase activity at 25 to 100 uM using varying levels of L-DOPA as substrate by Lineweaver-Burk plot analysis

Row | SMILES | IC50 (Mushroom tyrosinase [1]) [µM] | IC50 (Mushroom tyrosinase [2]) [µM] | further results
1 | COc1ccc2c(C(=O)CCN3CCC(Cc4ccc(F)cc4)CC3)c[nH]c2c1 | 9.4 | 18.03 | inhibition [3]: Active; Ratio IC50 [4]: < 35
2 | COc1cccc2c1c(C(=O)/C=C(\O)C(=O)O)cn2Cc1ccc(F)cc1 | – | – | IC50 (Mushroom tyrosinase [5]): 224 µM
3 | COc1ccc2[nH]cc(C(=O)CCN3CCC(Cc4ccccc4)CC3)c2c1 | 25.78 | 197.45 | Ratio IC50 [6]: 7
4 | O=C(CCN1CCC(Cc2ccc(F)cc2)CC1)c1c[nH]c2ccccc12 | 9.45 | 8.82 | inhibition [3]: Active; Ratio IC50 [4]: < 35
5 | O=C(CCN1CCC(Cc2ccccc2)CC1)c1c[nH]c2ccccc12 | 175 | 252 | –
6 | COc1cccc2c1c(C(=O)C(=O)Nc1cn[nH]n1)cn2Cc1ccc(F)cc1 | – | – | IC50 (Mushroom tyrosinase [5]): 372 µM
7 | COc1cc2[nH]cc(C(=O)CCN3CCC(Cc4ccc(F)cc4)CC3)c2cc1OC | 5.11 | 7.56 | inhibition [7]: Active; Ratio IC50 [4]: < 35
8 | COc1ccc2[nH]cc(C(=O)CCN3CCC(Cc4ccc(F)cc4)CC3)c2c1 | 7.86 | 14.15 | inhibition [3]: Active; Ratio IC50 [4]: < 35
9 | COc1ccc2c(C(=O)CCN3CCC(Cc4ccccc4)CC3)c[nH]c2c1 | 67.25 | 168.55 | –
10 | COc1cc2[nH]cc(C(=O)CCN3CCC(Cc4ccccc4)CC3)c2cc1OC | 57.24 | 133 | –

Further lines, with some results ahead:

Row | IC50 (Mushroom tyrosinase [1]) [µM] | IC50 (Mushroom tyrosinase [2]) [µM] | SMILES | further results
11 | 28.55 | 110.95 | Cc1cc(NC(=O)CCN2CCC(Cc3ccc(F)cc3)CC2)on1 | –
12 | 13.98 | 83 | O=C(CCN1CCC(Cc2ccc(F)cc2)CC1)NCc1ccccc1 | –
13 | 5.87 | 39.58 | O=C(CCN1CCC(Cc2ccc(F)cc2)CC1)Nc1cc[nH]n1 | –
14 | 28.85 | 27.9 | O=C(CCN1CCC(Cc2ccc(F)cc2)CC1)Nc1ccccc1 | inhibition [8]: Active
15 | 113.34 | 159.24 | O=C(CCN1CCC(Cc2ccc(F)cc2)CC1)n1cnc2ccccc21 | –
16 | 32.17 | 116 | CCN1CCC(Cc2ccc(F)cc2)CC1 | –
